Measured values published in PubChem BioAssay AID1963450 (Molecular Pharmacology Branch, DTP, NCI, 2024).

Tested on: 556581-035-R-J1-PDC complex spheroid growth
Assay: Anticancer human tumor 556581-035-R-J1-PDC patient-derived ovarian carcinoma cell line growth inhibition [Asc]
Details: for IC50: curve of first compound; for viability, T/C: stronger effect = lower value
Method in brief: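 Tumor cells were grown as complex spheroids with human endothelial cells (HUVEC) and human mesenchymal stem cells as stroma. Agents were tested alone and in combination, in half-log steps down from the clinical Cmax, or from 10 microM where Cmax was unknown.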
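Note: spheroids exposed to agents for 7 days before viability read.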

## Cc1nc(N2CCC3(CC2)COC(C)C3N)c(CO)nc1Sc1ccnc(N)c1Cl (stereo not given) + Cc1c(S(C)(=O)=O)c(-c2cc(F)cc(N3CCN(c4ccc(NS(=O)(=O)c5ccc(NC(CCN6CCC(C(=O)OCCCP(=O)(O)O)CC6)CSc6ccccc6)c(S(=O)(=O)C(F)(F)F)c5)cc4)CC3)c2)c(-c2ccc(Cl)cc2)n1C(C)C
Second compound 0.1 µM
  IC50: 0.544 µM
Second compound 0.316 µM
  IC50: 0.389 µM
Second compound 1 µM
  IC50: 0.266 µM
Second compound 3.16 µM
  IC50: 0.097 µM
Second compound 10 µM
  IC50: 0.0141 µM
Second compound 0.1 µM, first compound 0.00949 µM
  viability, T/C: 81.7%
Second compound 0.1 µM, first compound 0.03 µM
  viability, T/C: 90.2%
Second compound 0.1 µM, first compound 0.0949 µM
  viability, T/C: 62.4%
Second compound 0.1 µM, first compound 0.3 µM
  viability, T/C: 57.5%
Second compound 0.1 µM, first compound 0.949 µM
  viability, T/C: 47%
Second compound 0.1 µM, first compound 3 µM
  viability, T/C: 36.2%
Second compound 0.316 µM, first compound 0.00949 µM
  viability, T/C: 72.5%
Second compound 0.316 µM, first compound 0.03 µM
  viability, T/C: 64.4%
Second compound 0.316 µM, first compound 0.0949 µM
  viability, T/C: 54.9%
Second compound 0.316 µM, first compound 0.3 µM
  viability, T/C: 53.8%
Second compound 0.316 µM, first compound 0.949 µM
  viability, T/C: 47.6%
Second compound 0.316 µM, first compound 3 µM
  viability, T/C: 32.8%
Second compound 1 µM, first compound 0.00949 µM
  viability, T/C: 62%
Second compound 1 µM, first compound 0.03 µM
  viability, T/C: 63.8%
Second compound 1 µM, first compound 0.0949 µM
  viability, T/C: 59.5%
Second compound 1 µM, first compound 0.3 µM
  viability, T/C: 49.1%
Second compound 1 µM, first compound 0.949 µM
  viability, T/C: 31.2%
Second compound 1 µM, first compound 3 µM
  viability, T/C: 30.6%
Second compound 3.16 µM, first compound 0.00949 µM
  viability, T/C: 55.5%
Second compound 3.16 µM, first compound 0.03 µM
  viability, T/C: 60.5%
Second compound 3.16 µM, first compound 0.0949 µM
  viability, T/C: 50.3%
Second compound 3.16 µM, first compound 0.3 µM
  viability, T/C: 35.7%
Second compound 3.16 µM, first compound 0.949 µM
  viability, T/C: 39.9%
Second compound 3.16 µM, first compound 3 µM
  viability, T/C: 29.8%
Second compound 10 µM, first compound 0.00949 µM
  viability, T/C: 50.8%
Second compound 10 µM, first compound 0.03 µM
  viability, T/C: 48.7%
Second compound 10 µM, first compound 0.0949 µM
  viability, T/C: 43.7%
Second compound 10 µM, first compound 0.3 µM
  viability, T/C: 30.7%
Second compound 10 µM, first compound 0.949 µM
  viability, T/C: 37.4%
Second compound 10 µM, first compound 3 µM
  viability, T/C: 22.3%
